Measurements: ChEMBL document CHEMBL3612057, “Discovery of indolizines containing triazine moiety as new leads for the development of antitumoral agents targeting mitotic events” (2015)
Activity calls are given as the source filed them. No cut-off for these calls is given here.

Tests used:
NCI-H522 = experiment: Cytotoxicity against human NCI-H522 cells assessed as growth inhibition at 10 uM after 24 hrs by SRB assay; format: functional
PC-3 = experiment: Cytotoxicity against human PC3 cells assessed as growth inhibition at 10 uM after 24 hrs by SRB assay; format: functional
HL-60(TB) = experiment: Cytotoxicity against human HL-60(TB) cells assessed as growth inhibition at 10 uM after 24 hrs by SRB assay; format: functional
RXF 393 = experiment: Cytotoxicity against human RXF393 cells assessed as growth inhibition at 10 uM after 24 hrs by SRB assay; format: functional; details: RXF 393, 24 h, read-out: GI
UACC-62 = experiment: Cytotoxicity against human UACC62 cells assessed as growth inhibition at 10 uM after 24 hrs by SRB assay; format: functional
NCI/ADR-RES = experiment: Cytotoxicity against human NCI/ADR-RES cells assessed as growth inhibition at 10 uM after 24 hrs by SRB assay; format: functional
SK-MEL-28 = experiment: Cytotoxicity against human SK-MEL-28 cells assessed as growth inhibition at 10 uM after 24 hrs by SRB assay; format: functional
SK-OV-3 = experiment: Cytotoxicity against human SKOV3 cells assessed as growth inhibition at 10 uM after 24 hrs by SRB assay; format: functional
Ovis aries = organism: Ovis aries; experiment: Inhibition of sheep tubulin polymerization at 100 uM by fluorescence assay
OVCAR-8 = experiment: Cytotoxicity against human OVCAR8 cells assessed as growth inhibition at 10 uM after 24 hrs by SRB assay; format: functional
HOP-62 = experiment: Cytotoxicity against human HOP62 cells assessed as growth inhibition at 10 uM after 24 hrs by SRB assay; format: functional
SF-295 = experiment: Cytotoxicity against human SF295 cells assessed as growth inhibition at 10 uM after 24 hrs by SRB assay; format: functional
OVCAR-3 = experiment: Cytotoxicity against human OVCAR3 cells assessed as growth inhibition at 10 uM after 24 hrs by SRB assay; format: functional
T47D = experiment: Cytotoxicity against human T47D cells assessed as growth inhibition at 10 uM after 24 hrs by SRB assay; format: functional
CAKI-1 = experiment: Cytotoxicity against human CAKI-1 cells assessed as growth inhibition at 10 uM after 24 hrs by SRB assay; format: functional
OVCAR-4 = experiment: Cytotoxicity against human OVCAR4 cells assessed as growth inhibition at 10 uM after 24 hrs by SRB assay; format: functional
RPMI-8226 = experiment: Cytotoxicity against human RPMI8226 cells assessed as growth inhibition at 10 uM after 24 hrs by SRB assay; format: functional
MCF7 = experiment: Cytotoxicity against human MCF7 cells assessed as growth inhibition at 10 uM after 24 hrs by SRB assay; format: functional
786-0 = experiment: Cytotoxicity against human 786-0 cells assessed as growth inhibition at 10 uM after 24 hrs by SRB assay; format: functional
SNB-75 = experiment: Cytotoxicity against human SNB75 cells assessed as growth inhibition at 10 uM after 24 hrs by SRB assay; format: functional; details: SNB-75, 24 h, read-out: GI
MDA-MB-231 = experiment: Cytotoxicity against human MDA-MB-231 cells assessed as growth inhibition at 10 uM after 24 hrs by SRB assay; format: functional; details: MDA-MB-231, 24 h, read-out: GI
SR = experiment: Cytotoxicity against human SR cells assessed as growth inhibition at 10 uM after 24 hrs by SRB assay; format: functional
UACC-257 = experiment: Cytotoxicity against human UACC257 cells assessed as growth inhibition at 10 uM after 24 hrs by SRB assay; format: functional
ACHN = experiment: Cytotoxicity against human ACHN cells assessed as growth inhibition at 10 uM after 24 hrs by SRB assay; format: functional
CCRF-CEM = experiment: Cytotoxicity against human CCRF-CEM cells assessed as growth inhibition at 10 uM after 24 hrs by SRB assay; format: functional
U-251 = experiment: Cytotoxicity against human U251 cells assessed as growth inhibition at 10 uM after 24 hrs by SRB assay; format: functional
HOP-92 = experiment: Cytotoxicity against human HOP92 cells assessed as growth inhibition at 10 uM after 24 hrs by SRB assay; format: functional
A549 = experiment: Cytotoxicity against human A549 cells assessed as growth inhibition at 10 uM after 24 hrs by SRB assay; format: functional
K562 = experiment: Cytotoxicity against human K562 cells assessed as growth inhibition at 10 uM after 24 hrs by SRB assay; format: functional
MDA-MB-435 = experiment: Cytotoxicity against human MDA-MB-435 cells assessed as growth inhibition at 10 uM after 24 hrs by SRB assay; format: functional
[1] = Cytotoxicity against human Hs578T cells assessed as growth inhibition at 10 uM after 24 hrs by SRB assay; format: functional; details: Hs-578T, read-out: GI
Malme-3M = experiment: Cytotoxicity against human MALME-3M cells assessed as growth inhibition at 10 uM after 24 hrs by SRB assay; format: functional
TK-10 = experiment: Cytotoxicity against human TK10 cells assessed as growth inhibition at 10 uM after 24 hrs by SRB assay; format: functional
SF-539 = experiment: Cytotoxicity against human SF539 cells assessed as growth inhibition at 10 uM after 24 hrs by SRB assay; format: functional
HCT-116 = experiment: Cytotoxicity against human HCT116 cells assessed as growth inhibition at 10 uM after 24 hrs by SRB assay; format: functional
NCI-H460 = experiment: Cytotoxicity against human NCI-H460 cells assessed as growth inhibition at 10 uM after 24 hrs by SRB assay; format: functional
NCI-H226 = experiment: Cytotoxicity against human NCI-H226 cells assessed as growth inhibition at 10 uM after 24 hrs by SRB assay; format: functional
SK-MEL-5 = experiment: Cytotoxicity against human SK-MEL-5 cells assessed as growth inhibition at 10 uM after 24 hrs by SRB assay; format: functional

SMILES | growth inhibition (GI) (NCI-H522) | growth inhibition (GI) (PC-3) | growth inhibition (GI) (HL-60(TB)) | inhibition of growth at 10 µM (RXF 393) | growth inhibition (GI) (UACC-62) | inhibition (Ovis aries) | growth inhibition (GI) (CAKI-1) | growth inhibition (GI) (RPMI-8226) | inhibition of growth at 10 µM (SNB-75) | inhibition of growth at 10 µM (MDA-MB-231) | growth inhibition (GI) (UACC-257) | growth inhibition (GI) (CCRF-CEM) | growth inhibition (GI) (U-251) | growth inhibition (GI) (HOP-92) | growth inhibition (GI) (A549) | growth inhibition (GI) (K562) | growth inhibition (GI) (MDA-MB-435) | inhibition of growth at 10 µM [1] | growth inhibition (GI) (TK-10) | growth inhibition (GI) (SF-539) | also measured
COc1ccc(C(=O)c2cc(-c3nc(OC)nc(OC)n3)c3cc(C#N)ccn23)cc1 | inactive | inactive | inactive | 14% | inactive | inactive | inactive | inactive | 46% | 18% | inactive | inactive | inactive | inactive | inactive | inactive | inactive | 16% | inactive | inactive | growth inhibition (GI) (NCI/ADR-RES): inactive; growth inhibition (GI) (SK-MEL-28): inactive; growth inhibition (GI) (SK-OV-3): inactive; growth inhibition (GI) (OVCAR-8): inactive; inhibition of growth at 10 µM (HOP-62; HOP-62, 24 h, read-out: GI): 25%; growth inhibition (GI) (SF-295): inactive; growth inhibition (GI) (OVCAR-3): inactive; growth inhibition (GI) (T47D): inactive; growth inhibition (GI) (OVCAR-4): inactive; growth inhibition (GI) (MCF7): inactive; growth inhibition (GI) (786-0): inactive; inhibition of growth at 10 µM (SR; read-out: GI): 13%; growth inhibition (GI) (ACHN): inactive; growth inhibition (GI) (Malme-3M): inactive; growth inhibition (GI) (HCT-116): inactive; growth inhibition (GI) (NCI-H460): inactive; growth inhibition (GI) (NCI-H226): inactive; growth inhibition (GI) (SK-MEL-5): inactive
COc1nc(OC)nc(-c2cc(C(=O)c3ccc(Br)cc3)n3c(C)cccc23)n1 | inactive | inactive | inactive | 36% | inactive | inactive | inactive | inactive | 75% | 27% | inactive | inactive | inactive | inactive | inactive | inactive | inactive | 22% | inactive | inactive | inhibition of growth at 10 µM (NCI/ADR-RES; read-out: GI): 14%; inhibition of growth at 10 µM (SK-MEL-28; SK-MEL-28, 24 h, read-out: GI): 14%; inhibition of growth at 10 µM (SK-OV-3; SK-OV-3, 24 h, read-out: GI): 20%; inhibition of growth at 10 µM (OVCAR-8; OVCAR-8, 24 h, read-out: GI): 29%; growth inhibition (GI) (HOP-62): inactive; inhibition of growth at 10 µM (SF-295; SF-295, 24 h, read-out: GI): 22%; inhibition of growth at 10 µM (OVCAR-3; OVCAR-3, 24 h, read-out: GI): 15%; inhibition of growth at 10 µM (T47D; read-out: GI): 19%; inhibition of growth at 10 µM (OVCAR-4; OVCAR-4, 24 h, read-out: GI): 18%; inhibition of growth at 10 µM (MCF7; MCF7, 24 h, read-out: GI): 24%; inhibition of growth at 10 µM (786-0; 786-0, 24 h, read-out: GI): 14%; growth inhibition (GI) (SR): inactive; inhibition of growth at 10 µM (ACHN; read-out: GI): 30%; inhibition of growth at 10 µM (Malme-3M; read-out: GI): 18%; growth inhibition (GI) (HCT-116): inactive; growth inhibition (GI) (NCI-H460): inactive; growth inhibition (GI) (NCI-H226): inactive; growth inhibition (GI) (SK-MEL-5): inactive
